We go through one substance from patent US8920822B2, “Skin beautifier” (Megmilk Snow Brand Co., Ltd., priority 2004, dated 2014).

Test [1] concerns CD-1 (ICR)-nu/nu mice. Nature of the test: Transepidermal water loss in the tail skin of nude mice after 4 weeks of oral feeding (Tewameter). In kind it is in vivo, mouse. The note with it: for Increase Rate of Transepidermal Water Loss: value at end of feeding with start = 100; for increase of the transepidermal water loss: after 4-week administration. The protocol: (§1) Effects of the skin beautifier according to the present invention were investigated by an animal test using nude mice.
(§2) A sphingomyelin raw material (Phospholac 500; manufactured by NZMP) containing 10% of sphingomyelins was dissolved in deionized water as shown in Table 1. The solution was heated to 50° C. and then mixed under stirring with an ultradisperser (ULTRA-TURRAX T-25; manufactured by IKA Japan) at 9500 rpm for 20 minutes to prepare Test Feeds 1 to 3.
(§3) Five-week old CD-1 (ICR)-nu/nu mice were divided into the following 4 test groups (10 mice in each group), namely, (Group A) a group receiving 10 g of physiological saline per kg of mouse body weight, (Group B) a group receiving 10 g of the Test Feed 1 per kg of mouse body weight, (Group C) a group receiving 10 g of the Test Feed 2 per kg of mouse body weight, and (Group D) a group receiving 10 g of the Test Feed 3 per kg of mouse body weight. Mice in all the groups were fed by orally administering the feed once daily by gavage feeding for 4 weeks. Moisture contents and transepidermal water losses in the tail skin of each mouse were measured at the start and the end of the feeding. Values at the end of the feeding (rates of increase) were calculated by assuming each of the values at the start of the feeding to be 100. The moisture contents of the skin and the transepidermal water losses were measured using Corneometer and Tewameter, respectively, which were manufactured by Courage+Khazaka.

Test [2] relates to CD-1 (ICR)-nu/nu mice. Nature of the test: Moisture content of the tail skin of nude mice after 4 weeks of oral feeding (Corneometer). In kind it is in vivo, mouse. The following applies: for increase of the moisture content of the skin: end vs start of administration; for Increase Rate of Moisture: value at end of feeding with start = 100. The procedure:
as §1, §2, §3

Where [3] appears, read: Group B, Test Feed 1, sphingomyelin 2 mg/kg orally once daily for 4 weeks.
[4] abbreviates: Group C, Test Feed 2, sphingomyelin 5 mg/kg orally once daily for 4 weeks.
Setting [5] is: Group D, Test Feed 3, sphingomyelin 10 mg/kg orally once daily for 4 weeks.
Setting [6] is: oral administration, nude mice, covers moisture content and TEWL.

For the substance sphingomyelin, the entries for the “Increase Rate of Transepidermal Water Loss” value with CD-1 (ICR)-nu/nu mice [1] (setting [3]), in the test with CD-1 (ICR)-nu/nu mice [1] (setting [4]) and with CD-1 (ICR)-nu/nu mice [1] (setting [5]) were 152%, 137% and 140%, respectively. The “increase of the transepidermal water loss” value in the test with CD-1 (ICR)-nu/nu mice [1] (Group C, 5 mg/kg orally) is “about 1.4 times”; in the test with CD-1 (ICR)-nu/nu mice [1] (Group D, 10 mg/kg orally) it was “about 1.4 times”. The “increase of the moisture content of the skin” value in the test on CD-1 (ICR)-nu/nu mice [2] (Group B (printed Group 13), 2 mg/kg orally) is on record as “about 1.5 times”; in the test with CD-1 (ICR)-nu/nu mice [2] (Group C, 5 mg/kg orally) it was “about 2.5 times”; in the test with CD-1 (ICR)-nu/nu mice [2] (Group D, 10 mg/kg orally), “about 2.5 times”. Moreover, the “Increase Rate of Moisture” value came to 155% in the test on CD-1 (ICR)-nu/nu mice [2] (setting [3]), 245% in the test with CD-1 (ICR)-nu/nu mice [2] (setting [4]) and 253% in the test with CD-1 (ICR)-nu/nu mice [2] (setting [5]). In addition, the “dose at which the effects (skin moisture increased, transepidermal water loss decreased) were observed” value with CD-1 (ICR)-nu/nu mice [2] (setting [6]) was ≥ 2 mg per kg of mouse body weight. Moreover, the “dose at which the effects (skin moisture increased, transepidermal water loss decreased) were significant” value in the test with CD-1 (ICR)-nu/nu mice [2] (setting [6]) is ≥ 5 mg per kg of mouse body weight.
